Data reported in US7887784B2, “1-[(2′-substituted)-piperazin-1′ -yl]-isoquinolines as norepinephrine transporter inhibitor therapeutics and positron emission tomography imaging agents” (University of Montana, priority 2007, dated 2011).

Legend:
5-HT1A = target: T1, 5-HT1A (Homo sapiens, UniProt P08908); test: 5-HT1A receptor competitive binding, [3H]8-OH-DPAT; settings: partially purified human protein expressed in CHO cells, nonspecific 5-HT, 30° C., 0.5 h, read-out: Ki of (±)-14, 5-HT1A
T1 sequence (P08908 1-422): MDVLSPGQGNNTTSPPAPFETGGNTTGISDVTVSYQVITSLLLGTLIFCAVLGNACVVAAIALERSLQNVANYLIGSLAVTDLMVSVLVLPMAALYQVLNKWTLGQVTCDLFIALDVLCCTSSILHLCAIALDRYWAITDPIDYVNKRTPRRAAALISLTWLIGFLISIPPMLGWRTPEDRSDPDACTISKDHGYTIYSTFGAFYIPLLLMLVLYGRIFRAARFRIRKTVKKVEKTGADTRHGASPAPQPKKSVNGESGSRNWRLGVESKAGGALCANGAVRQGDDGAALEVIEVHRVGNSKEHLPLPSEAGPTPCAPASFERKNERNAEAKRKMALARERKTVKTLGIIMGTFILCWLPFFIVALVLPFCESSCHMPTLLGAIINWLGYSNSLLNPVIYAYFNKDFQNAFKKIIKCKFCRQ
Source text: (§1) The evaluation of the competitive binding affinities (Ki values) of (±)-14 for the serotonin and dopamine transporter proteins (SERT and DAT, respectively), the beta-adrenergic receptor, and also serotonin 1a and 2a receptors has been made. The competitive binding profiles of (±)-14 at these other CNS sites are summarized in Table 2, where the assay conditions are defined. […] Thus, compound (±)-14 is considered to have potent NET selectivity (Table 1, Example X) relative to the potencies at the other sites as defined per Table 2.

DAT = DAT (Rattus norvegicus, UniProt P23977); test: DAT competitive binding, [3H]B-CFT; settings: partially purified rat protein, nonspecific GBR-12,909, 0° C., 2 h, read-out: Ki of (±)-14, DAT
DAT, sequence (P23977 whole entry): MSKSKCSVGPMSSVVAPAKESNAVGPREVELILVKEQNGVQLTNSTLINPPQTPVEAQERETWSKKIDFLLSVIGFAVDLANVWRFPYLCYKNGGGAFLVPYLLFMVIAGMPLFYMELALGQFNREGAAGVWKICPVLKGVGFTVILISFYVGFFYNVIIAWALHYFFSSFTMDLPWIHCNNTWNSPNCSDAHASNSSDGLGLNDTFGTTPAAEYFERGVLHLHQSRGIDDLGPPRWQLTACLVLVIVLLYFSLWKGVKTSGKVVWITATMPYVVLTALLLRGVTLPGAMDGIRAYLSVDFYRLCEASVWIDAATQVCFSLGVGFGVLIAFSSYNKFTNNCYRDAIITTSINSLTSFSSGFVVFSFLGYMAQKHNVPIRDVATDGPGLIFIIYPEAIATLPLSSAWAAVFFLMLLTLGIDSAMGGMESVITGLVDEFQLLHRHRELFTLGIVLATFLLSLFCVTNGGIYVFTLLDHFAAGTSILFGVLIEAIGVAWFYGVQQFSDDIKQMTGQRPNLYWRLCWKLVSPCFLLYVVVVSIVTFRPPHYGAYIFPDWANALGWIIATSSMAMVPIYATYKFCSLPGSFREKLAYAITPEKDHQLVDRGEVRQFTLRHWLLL
Source text: as §1

NET = target: T2, NET (Rattus norvegicus, UniProt Q9WTR4); test: NET competitive binding assay with [3H]nisoxetine, rat brain cortical homogenates; settings: partially purified rat brain cortical homogenates, 0° C., 4 h, Ki derived from IC50
T2 construct: The protocol employed partially purified rat brain cortical homogenates; from tissue; host or cells: rat brain cortex homogenate
T2 sequence (Q9WTR4 1-597): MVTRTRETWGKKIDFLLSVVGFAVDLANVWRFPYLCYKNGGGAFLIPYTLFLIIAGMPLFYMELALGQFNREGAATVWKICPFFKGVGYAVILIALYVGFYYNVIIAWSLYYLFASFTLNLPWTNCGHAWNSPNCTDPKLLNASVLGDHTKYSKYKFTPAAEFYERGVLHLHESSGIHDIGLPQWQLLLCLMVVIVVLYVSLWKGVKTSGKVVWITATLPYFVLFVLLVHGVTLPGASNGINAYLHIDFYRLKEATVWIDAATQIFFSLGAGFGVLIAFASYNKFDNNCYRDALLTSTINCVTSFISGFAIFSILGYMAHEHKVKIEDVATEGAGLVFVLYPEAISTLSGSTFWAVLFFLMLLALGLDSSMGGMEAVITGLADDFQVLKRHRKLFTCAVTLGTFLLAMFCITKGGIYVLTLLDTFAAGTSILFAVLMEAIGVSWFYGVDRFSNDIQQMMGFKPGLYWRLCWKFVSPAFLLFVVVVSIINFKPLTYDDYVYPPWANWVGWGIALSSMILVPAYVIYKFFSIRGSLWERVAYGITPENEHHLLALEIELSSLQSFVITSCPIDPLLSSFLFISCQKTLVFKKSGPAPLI
Procedure: The protocol employed partially purified rat brain cortical homogenates, [^3H]nisoxetine, incubated 0° C., 4 h; with nonspecific binding determined with added 1 microM of desipramine (DMI) and desipramine as the parallel positive control.

5-HT2A = 5-HT2A (Homo sapiens, UniProt P28223); test: 5-HT2A receptor competitive binding, [3H]Ketanserin; settings: partially purified human protein expressed in CHO cells, nonspecific Mianserin, 30° C., 0.5 h, read-out: Ki of (±)-14, 5-HT2A
5-HT2A, sequence (P28223 whole entry): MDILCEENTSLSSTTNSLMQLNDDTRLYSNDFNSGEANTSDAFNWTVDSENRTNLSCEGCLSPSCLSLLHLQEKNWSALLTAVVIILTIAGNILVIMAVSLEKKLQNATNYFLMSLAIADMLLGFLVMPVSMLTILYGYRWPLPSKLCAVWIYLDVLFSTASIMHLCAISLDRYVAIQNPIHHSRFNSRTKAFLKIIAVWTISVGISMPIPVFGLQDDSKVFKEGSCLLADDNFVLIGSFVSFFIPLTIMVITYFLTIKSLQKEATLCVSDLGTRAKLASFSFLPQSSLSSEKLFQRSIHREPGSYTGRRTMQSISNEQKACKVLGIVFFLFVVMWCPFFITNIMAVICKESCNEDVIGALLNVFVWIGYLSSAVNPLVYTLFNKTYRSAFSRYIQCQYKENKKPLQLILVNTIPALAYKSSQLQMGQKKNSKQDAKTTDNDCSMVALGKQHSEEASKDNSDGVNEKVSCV
Source text: as §1

SERT = SERT (Rattus norvegicus, UniProt P31652); test: SERT competitive binding, [3H]Citalopram; settings: partially purified rat protein, nonspecific Clomipramine, 25° C., 1 h, read-out: Ki of (±)-14, SERT
SERT, sequence (P31652 whole entry): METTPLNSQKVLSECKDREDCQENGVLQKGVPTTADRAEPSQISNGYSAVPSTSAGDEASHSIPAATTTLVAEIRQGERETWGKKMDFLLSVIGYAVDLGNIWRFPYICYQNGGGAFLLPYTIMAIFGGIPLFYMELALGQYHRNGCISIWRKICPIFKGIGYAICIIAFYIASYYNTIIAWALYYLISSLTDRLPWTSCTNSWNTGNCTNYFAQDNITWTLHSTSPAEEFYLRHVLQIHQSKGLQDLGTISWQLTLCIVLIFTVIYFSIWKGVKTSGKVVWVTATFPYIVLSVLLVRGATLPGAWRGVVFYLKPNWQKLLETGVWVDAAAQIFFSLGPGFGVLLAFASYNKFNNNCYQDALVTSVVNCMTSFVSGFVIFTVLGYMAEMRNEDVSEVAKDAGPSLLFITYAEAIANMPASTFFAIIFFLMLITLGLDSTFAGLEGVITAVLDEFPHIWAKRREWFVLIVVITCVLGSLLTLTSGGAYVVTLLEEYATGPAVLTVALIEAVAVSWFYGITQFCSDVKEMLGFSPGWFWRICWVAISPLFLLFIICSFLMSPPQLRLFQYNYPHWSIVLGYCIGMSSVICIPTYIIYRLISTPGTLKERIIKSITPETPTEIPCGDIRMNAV
Source text: as §1

Row | Ki (NET) [nM] | Compound | Ki (5-HT1A) [nM] | Ki (DAT) [nM] | Ki (5-HT2A) [nM] | Ki (SERT) [nM]
1 | 71.5 | FCCCOCC1CNCCN1c1nccc2ccccc12 (racemic) [(±)-37] |  |  |  | 
2 | 16.2 | c1ccc(CC2CNCCN2c2nccc3ccccc23)cc1 (racemic) [Compound 9, (±)-1-[2′-(Benzyl)piperazin-1′-yl]isoquinoline] |  |  |  | 
3 | 6.71 | FCCCOC[C@@H]1CNCCN1c1nccc2ccccc12 [(S)-37, (S)-1-[2′-[(3-fluoropropoxy)methyl]piperazin-1′-yl]isoquinoline] |  |  |  | 

The next lines start with the compound.

Row | Compound | Ki (NET) [nM] | Ki (5-HT1A) [nM] | Ki (DAT) [nM] | Ki (5-HT2A) [nM] | Ki (SERT) [nM]
4 | COCC1CNCCN1c1nccc2ccccc12 (racemic) [(±)-14, (±)-1-[2′-(Methoxymethyl)piperazin-1′-yl] isoquinoline] | 4.14 | > 10000 | 1570 | > 10000 | 1800
5 | COCC1CNCCN1c1nc(Cl)cc2ccccc12 (racemic) [Compound 17, (±)-3-Chloro-1-[2′-(methoxymethyl)piperazin-1′-yl]isoquinoline] | 14.2 |  |  |  | 
